Results published in patent US8105833B2, “Method for forming organ” (Research Foundation Itsuu Laboratory, priority 2003, dated 2012).

Experiments:
[1] = system: embryoid bodies from ES cells (E14 cells or B6 cells); experiment: Formation of heart (autonomically beating cardiac muscle-like cell aggregates) from embryoid bodies using RXR ligand; type: cell-based, mouse; set-up: frequency of appearance of autonomically beating cardiac muscle-like cell aggregates: dose or concentration left out as unconfirmed
Description: (§1) As ES cells, E 14 cells of the 29 mouse strain (ATCC #: CRL-1821) or B6 cells of the C57BL mouse strain (ATCC #: SCRC-1002) were used. Mouse fetal fibroblasts prepared from a mouse embryo on the 13th day were inoculated on a 0.1% gelatin-coated culture dish, and cultured in a medium containing 12% fetal bovine serum (Gibco), 100 U/ml penicillin (Sigma) and 100 μg/ml streptomycin (Sigma) for 24 hours. These cells were treated with 10 μg/ml mytomicin C (MMC, Sigma) for four hours to inhibit cell division and then washed twice with phosphate-buffered saline (PBS) to remove MMC. The ES cells were inoculated on these fibroblasts (feeder). As the medium for the ES cells, D-MEM (high glucose, Gibco) containing 15% fetal bovine serum for ES (Gibco), 2 mM L-glutamine (Gibco), MEM non-essential amino acid (Sigma), 1 mM sodium pyruvate (Gibco), 0.0007% β-mercaptoethanol (Sigma), 1000 U/ml Leukemia inhibiting factor (Chemicon), 100 U/ml penicillin (Sigma) and 100 μg/ml streptomycin (Sigma) was used, and the cells were cultured in a CO2 incubator (5% CO2, 100% humidity) at 37° C. The medium was exchanged every day.
(§2) Subculture was performed 72 hours after the inoculation of the ES cells. MMC-treated feeder cells (mouse fetus fibroblasts) were inoculated on a gelatin-coated culture dish, and after 24 hours, the ES cells completely dissociated by a treatment with 0.05% trypsin-0.02% EDTA were inoculated to allow formation of colonies (see, FIG. 1). The ES cells were cultured for three days after the inoculation to allow formation of colonies, and a colony was isolated by pipetting and then inoculated on a culture dish for bacteria with an extremely low cell attachment property. As the medium, D-MEM (high glucose) containing 15% Knockout SR (KSR, Gibco), 100 U/ml penicillin and 100 μg/ml streptomycin was used. The cells were further cultured for three days under this condition to prepare embryoid bodies (FIG. 2). […]

[2] = system: embryoid bodies from ES cells; experiment: Formation of smooth muscle-like cells from embryoid bodies using RXR ligand; type: cell-based, mouse; conditions: 1×10^−5 to 2×10^−6 M PA024, then further cultured
Description: as §1
Subculture was performed 72 hours after the inoculation of the ES cells. […]

[3] = system: embryoid bodies from ES cells; experiment: Formation of adipocytes from embryoid bodies using RXR ligand; type: cell-based, mouse; set-up: adipocytes formed in comparison with the control group (all-trans retinoic acid): dose or concentration left out as unconfirmed
Description: as §1, §2

[4] = system: animal cap cells (pluripotent cell aggregates) at the blastula stage; conditions: activin at a high concentration; cited from earlier work

Compound: CC1(C)CCC(C)(C)c2cc(N(CC3CC3)c3ncc(C(=O)O)cn3)ccc21 [PA024, 2-[N-cyclopropylmethyl-N-(5,6,7,8-tetrahydro-5,5,8,8-tetramethylnaphthalen-2-yl)amino]pyrimidine-5-carboxylic acid]
- formation of cardiac muscle-like cell aggregates ([1]; 2×10−6 M PA024): 0.5 cell aggregate per embryoid body
- frequency of appearance of autonomically beating cardiac muscle-like cell aggregates ([1]; PA024, cultured for 2 days): 0.2 cell aggregate per embryoid body
- time of formation of smooth muscle-like cells [2]: one to two
- time of appearance of adipocytes ([3]; 1×10^−5 to 2×10^−6 M PA024): about two
- adipocyte formation in terms of the value per embryoid body ([3]; 1×10^−5 to 2×10^−6 M PA024, culture continued for 20 days): ~100%
- adipocytes formed in comparison with the control group (all-trans retinoic acid) ([3]; PA024 treated group versus all-trans retinoic acid control): two or three times more

Compound: CC1=C(/C=C/C(C)=C/C=C/C(C)=C/C(=O)O)C(C)(C)CCC1 [all-trans retinoic acid]
- differentiation of cardiac muscle-like cells ([1]; control group treated with 1×10^−5 M, over two weeks after the treatment): almost no differentiation

Compound: activin
- formation rate of rhythmically beating heart [4]: 60%
